Tests used:
HeLa cells = type: cell-based, Human; settings: 1 h
Protocol: The MTT assay has been used to test cytotoxicity of reagents and cell viability. Human cervix carcinoma cells (HeLa cells) were seeded in 96-well plates and incubated with serially 2-fold diluted concentration of different peptides (μM) for 1 h at 37 °C. As a negative control, cells were cultured without addition of the peptides. Thereafter, 20 μL of 5 mg/mL MTT solution in PBS were added to cells and treated for 4 h at 37 °C. The formazan crystals were dissolved by adding 150 μL dimethyl sulfoxide (DMSO) just before spectrometric determination. The absorbance was determined at 490 nm. The results were expressed as IC50, representing the concentration at which cell ability was reduced by 50%. The cytotoxicity assays were repeated in triplicates.

[1] = RP-HPLC temperature profiling (peptide self-association); type: physicochemical; settings: RP-HPLC temperature profiling 5 to 80 °C in 5 °C increments; maximal retention time difference normalised to control peptide C; Zorbax 300 SB-C8
Protocol: Figure 2 Peptide self-association ability during RP-HPLC temperature profiling. The retention behavior of the peptides was normalized to that of the random coil peptide C through the expression (tR^t − tR^5 for peptide analogs) minus (tR^t − tR^5 for control peptide C), where tR^t is the retention time at a specific temperature of the anticancer peptides or the random coil peptide, and tR^5 is the retention time at 5 °C.
We utilized the RP-HPLC temperature profiling technique to determine the peptide self-association ability in aqueous solution which we believe is a very important parameter to understand anticancer activity. When the self-association ability of a peptide is too strong in aqueous solution, it could decrease the ability of the peptide to dissociate and penetrate into membranes to kill target cells. […] The curves were normalized with the control peptide C which is a monomeric random coil peptide in both aqueous and hydrophobic media, showing only the general temperature effects. The peptide self-association parameter (PA) is the maximum change in peptide retention time relative to the control peptide C, to quantify the self-association ability of peptides in solution. The details of how to determine peptide self-association parameter were reported previously. […]
Peptide samples were analyzed on a Shimadzu LC-20A HPLC column. […]

[2] = Isothermal titration calorimetry with DMPS LUVs; type: binding; settings: ITC, 25 °C, 10 mM HEPES, 150 mM NaCl pH 7.0
Protocol: To mimic cancer cell and normal cell membranes, desired phospholipid powders were mixtured under certain ratios. Phospholipid mixtures were dissolved in chloroform, dried by N2 flow, and then vacuumed overnight to remove the trace of organic solvents. The lipids were hydrated in 10 mM HEPES and 150 mM NaCl buffer (pH 7.4) and extensively vortexed above the phase-transition temperature of phospholipid, obtaining multilamellar large vesicles (MLVs). To obtain large unilamellar vesicles (LUVs), the MLVs was exposed to five freeze-thaw cycles and pass 21 times through two polycarbonate membrane (0.1 μm) with a mini-extruder above the phase-transition temperature of phospholipids. The phospholipid concentrations were determined by phosphorus analysis.
The affinity of peptides with LUV liposomes were detected by a Nano ITC2G isothermal titration calorimeter (TA Instrument Corp., New Castle, DE, USA) at 25 °C, under HEPES buffer condition (10 mM HEPES, and 150 mM NaCl (pH 7.0)). To avoid air bubbles, peptides and LUV solutions were degassed under vacuum 500 mmHg, for 14 min before using. […]

[3] = RP-HPLC retention time (relative hydrophobicity); type: physicochemical; settings: measure of relative hydrophobicity, Zorbax 300 SB-C8 150 × 4.6 mm, linear AB gradient 1% acetonitrile/min, 0.1% TFA, 1 mL/min
Protocol: The relative hydrophobicity of the peptides was determined by measuring their RP-HPLC retention times at 25 °C. The retention times of peptides are highly sensitive to the helicity of peptides upon the interaction between the peptide with the hydrophobic environment of the column matrix. From Table 2, the relative hydrophobicity of peptide analogs is in the order PCW < PMW < PNW. […] It is well known that the chromatography conditions characteristic of RP-HPLC (hydrophobic stationary phase, non-polar eluting solvent) induce helical structures in potentially helical peptides in a manner similar to that of the helix-inducing solvent trifloroethanol (TFE).
Peptide samples were analyzed on a Shimadzu LC-20A HPLC column. Runs were performed on a Zorbax 300 SB-C8 column (150 × 4.6 mm ID, 5 μm particle size, 300Å pore size) from Agilent Technologies, using a linear AB gradient (1% acetonitrile/min) and a flow rate of 1 mL/min, in which eluent A was 0.1% aqueous TFA in water and eluent B was 0.1% TFA in acetonitrile. Temperature profiling analyses during RP-HPLC were performed in 5 °C increments, from 5 °C to 80 °C, as described previously.

[4] = Circular dichroism spectroscopy (helicity); type: physicochemical; settings: for [θ]222 Benign / [θ]222 SDS in Buffer / [θ]222 50%TFE: CD, 222 nm, 75 μM peptide; for [θ]222 Benign / [θ]222 SDS in Buffer / [θ]222 50%TFE / % Helix SDS in Buffer / % Helix 50%TFE: 25 °C; for [θ]222 Benign: KP buffer (100 mM KCl, 50 mM KH2PO4/K2HPO4, pH 7.4); for [θ]222 SDS in Buffer / % Helix SDS in Buffer: KP buffer with 10 mM SDS; for [θ]222 50%TFE / % Helix 50%TFE: KP buffer with 50% TFE; for % Helix Benign / % Helix SDS in Buffer / % Helix 50%TFE: relative to molar ellipticity of PMW in 50% TFE; for % Helix Benign: KP buffer pH 7.4, 25 °C
Protocol: Peptide secondary structure was measured by CD spectroscopy on a Jasco-810 spectropolarimeter under mild buffer conditions (50 mM KH2PO4/K2HPO4, and 100 mM KCl, pH 7), in 50% TFE and under mild buffer conditions with 10 mM SDS to mimic the hydrophobic environment of the cell membrane (Figure 1 and Table 2). All peptide analogs show negligible helical structures with molar ellipticity values ranging from −5900 to −7800 under mild conditions. In contrast, all peptide analogs were induced into highly helical structures with molar ellipticity values ranging from −24,300 to −31,700 in the hydrophobic environment of 50% TFE and molar ellipticity values ranging from −17,800 to −27,300 in the hydrophobic buffer environment in the presence of 10 mM SDS. […] It is obvious that the tryptophan residue played an important role in stabilizing the helical structure at the N-terminus or in the middle position of the peptide sequence.
Circular dichroism (CD) spectra were acquired with a 0.02 cm path length quartz cuvette on a Jasco J-810 spectropolarimeter (Jasco, Easton, MD, USA) at 25 °C as described previously. The concentration of 75 μM peptides was measured in benign buffer (50 mM KH2PO4/K2HPO4, and 100 mM KCl (pH 7.4)), benign buffer with 50% TFE and benign buffer with 10 mM SDS at 25 °C. The mean residue molar ellipticities were calculated by the equation [θ] = θ/10lCMn and θ is the ellipticity in millidegrees, l is the optical path length of the cuvette in centimeters, CM is the peptide concentration in mole/liter, and n is the number of residues in the peptide. The values of mean residue molar ellipticities of the peptide analogs at 222 nm were used to determine the relative helicity of the peptides.

[5] = Isothermal titration calorimetry with DMPC LUVs; type: binding; settings: ITC, 25 °C
Protocol: The interaction of the peptides PNW and PCW with phospholipids was investigated using ITC at 25 °C, in which DMPC or DMPS LUVs were injected into an ITC cell containing peptide solutions of PNW or PCW. Based on the tryptophan fluorescence and quenching experiments, PNW and PCW could cover the trend of peptide-membrane interaction, thus, PMW was not included in the liposome experiments. The interaction of peptides with phospholipid bilayer membrane is entropy-driven. […] It is clear to see that the endothermic heat flow decreased with the increase of the number of injections and the free peptide concentration in the cell decreased simultaneously. The endothermic binding reaction of peptide PNW ceased after 20 injections, when all of peptide in bulk bound to DMPC LUVs (Figure 4A) and the further addition of DMPC LUVs caused dilution heat. However, the endothermic binding reaction of PCW ceased after 22 injections.
To mimic cancer cell and normal cell membranes, desired phospholipid powders were mixtured under certain ratios. Phospholipid mixtures were dissolved in chloroform, dried by N2 flow, and then vacuumed overnight to remove the trace of organic solvents. […] The phospholipid concentrations were determined by phosphorus analysis. […]

human red blood cells = type: cell-based; settings: red cells of human, 1 h
Protocol: Peptide samples were serially diluted by PBS in 96-well plates (round bottom) to give a volume of 70 μL sample solution in each well. Human erythrocytes anticoagulated by EDTAK2 were collected by centrifugation (1000 rpm) for 5 min, and washed twice by PBS, then diluted to a concentration of 2% in PBS. 70 μL of 2% erythrocytes were added to each well to give a final concentration of 1% human erythrocytes in each well and plates were incubated at 37 °C for 1 h. The plates were then centrifuged for 10 min at 3,000 rpm and supernatant (90 μL) was transferred to a 96-well plate (flat bottom). The release of hemoglobin was determined by measuring the absorbance of the supernatant at 540 nm. The hemolytic activity was determined as the minimal peptide concentration that caused hemolysis (minimal hemolytic concentration, MHC). Erythrocytes in PBS and distilled water were used as control of 0% and 100% hemolysis, respectively.

Row | Compound | IC50 (HeLa cells) [nM] | PA (association parameter) [1] [min] | Ka (affinity constant) [2] | tR (retention time at 25 °C by RP-HPLC) [3] [min] | [θ]222 Benign [4] [degree cm^2 dmol^−1] | [θ]222 SDS in Buffer [4] | [θ]222 50%TFE [4] [degree.cm^2.dmol^−1] | % Helix Benign [4] [%] | % Helix SDS in Buffer [4] [%] | % Helix 50%TFE [4] [%] | affinity constant Ka to DMPC LUVs [5] [M⁻¹] | Ka (affinity constant) ([5]; 10 mM HEPES, 150 mM NaCl pH 7.0) | MHC (minimal hemolytic concentration) (human red blood cells) [µM]
1 | CC[C@H](C)[C@H](NC(=O)[C@H](CCCCN)NC(C)=O)C(=O)N[C@@H](CCCCN)C(=O)N[C@@H](CO)C(=O)N[C@@H](Cc1ccccc1)C(=O)N[C@@H](CC(C)C)C(=O)N[C@@H](CCCCN)C(=O)N[C@H](C(=O)N[C@@H](Cc1ccccc1)C(=O)N[C@@H](CCCCN)C(=O)N[C@@H](CO)C(=O)N[C@@H](CC(C)C)C(=O)N[C@@H](CCCCN)C(=O)N[C@@H](CCCCN)C(=O)N[C@H](C(=O)N[C@H](C(=O)N[C@@H](CC(C)C)C(=O)N[C@@H](Cc1c[nH]cn1)C(=O)N[C@H](C(=O)N[C@@H](CC(C)C)C(=O)N[C@@H](CC(C)C)C(=O)N[C@@H](CCCCN)C(=O)N[C@@H](C)C(=O)N[C@@H](Cc1c[nH]c2ccccc12)C(=O)N[C@@H](CO)C(=O)N[C@@H](CO)C(N)=O)[C@@H](C)O)C(C)C)[C@@H](C)O)[C@@H](C)O [PCW] | 2330 ± 120 | 4.5 | 17.70 [M]^−1× 10^3 | 45.6 | −5900 | −17,800 degree cm^2 dmol^−1 | −24300 | 18 | 56 | 76 | 4150 | 4.15 [M]^−1× 10^3 | 10.41 ± 0.01
2 | CC[C@H](C)[C@H](NC(=O)[C@H](C)NC(=O)[C@H](CCCCN)NC(=O)[C@H](CC(C)C)NC(=O)[C@H](CC(C)C)NC(=O)[C@@H](NC(=O)[C@H](Cc1c[nH]cn1)NC(=O)[C@H](CC(C)C)NC(=O)[C@@H](NC(=O)[C@@H](NC(=O)[C@H](CCCCN)NC(=O)[C@H](CCCCN)NC(=O)[C@H](Cc1c[nH]c2ccccc12)NC(=O)[C@H](CO)NC(=O)[C@H](CCCCN)NC(=O)[C@H](Cc1ccccc1)NC(=O)[C@@H](NC(=O)[C@H](CCCCN)NC(=O)[C@H](CC(C)C)NC(=O)[C@H](Cc1ccccc1)NC(=O)[C@H](CO)NC(=O)[C@H](CCCCN)NC(=O)[C@@H](NC(=O)[C@H](CCCCN)NC(C)=O)[C@@H](C)CC)[C@@H](C)O)[C@@H](C)O)C(C)C)[C@@H](C)O)C(=O)N[C@@H](CO)C(=O)N[C@@H](CO)C(N)=O [PMW] | 2470 ± 180 | 5.3 | – | 46.5 | −7400 | −25,050 degree cm^2 dmol^−1 | −31900 | 23 | 79 | 100 | – | – | 10.41 ± 0.01

From paper PMC6271632, “Tryptophan as a Probe to Study the Anticancer Mechanism of Action and Specificity of α-Helical Anticancer Peptides” (Molecules, 2014)
